# Experimental data published in US6806230B1, “Pyrimidine derivatives and herbicides containing them” (Kumiai Chemical Industry Co., Ltd., priority 1999, dated 2004).
# Columns and labels:
# Format in all cases: in vivo
# barnyard grass (Ec) [1] = assay: Test Example 2: herbicidal effects by upland soil treatment; parameters: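 0-5 growth inhibition grade; 5 = over 90%; 4 = 70-90%; 3 = 50-70%; 2 = 30-50%; 1 = 10-30%; 0 = under 10%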; conditions: dose 100 g active ingredient per 10 ares, examined on the 21st day after treatment, standards of Table 44
# How it was run: (§1)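 Pre-emergence test: barnyard grass and green foxtail sown in upland soil, then soil surface sprayed with wettable-powder formulation at 100 g active ingredient per 10 ares (100 l per 10 ares). Grown in greenhouse; herbicidal effect scored on a rating scale 21 days after treatment.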
# green foxtail (Se) = assay: as above; conditions: dose 100 g active ingredient per 10 ares, examined on the 21st day after treatment, standards of Table 44;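 also: 0-5 growth inhibition grade; 5 = over 90%; 4 = 70-90%; 3 = 50-70%; 2 = 30-50%; 1 = 10-30%; 0 = under 10%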
# How it was run: as §1
# barnyard grass (Ec) [2] = assay: Test Example 3: herbicidal effects by foliage treatment in upland field; parameters: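 0-5 growth inhibition grade; 5 = over 90%; 4 = 70-90%; 3 = 50-70%; 2 = 30-50%; 1 = 10-30%; 0 = under 10%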; conditions: dose 100 g active ingredient per 10 ares, examined on the 14th day after treatment
# How it was run: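 Barnyard grass and green foxtail were grown in upland soil for 2 weeks in a greenhouse. A water-diluted wettable powder was sprayed over the foliage at 100 l per 10 ares, giving 100 g active ingredient per 10 ares. Herbicidal effect was scored on day 14 after treatment.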
# monochoria (Mo) [3] = assay: Test Example 1: herbicidal effects by flooded paddy field treatment; parameters: herbicidal effects, Mo (monochoria):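 0-5 growth inhibition grade; 5 = over 90%; 4 = 70-90%; 3 = 50-70%; 2 = 30-50%; 1 = 10-30%; 0 = under 10%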; conditions: dose 100 g active ingredient per 10 ares, examined on the 21st day after treatment, standards of Table 44
# How it was run: (§2)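 Puddled paddy soil in pots, seeds sown, 3 cm flood. Day after sowing: wettable powder diluted in water, applied dropwise to water surface, 100 g a.i./10 ares. Greenhouse; visual herbicidal rating at day 21 post-treatment.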
# barnyard grass (Eo) [4] = assay: as above; parameters: herbicidal effects, Eo (barnyard grass):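 0-5 growth inhibition grade; 5 = over 90%; 4 = 70-90%; 3 = 50-70%; 2 = 30-50%; 1 = 10-30%; 0 = under 10%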; conditions: dose 100 g active ingredient per 10 ares, examined on the 21st day after treatment, standards of Table 44
# How it was run: as §2
# rice (Or) = assay: Test Example 4: selectivity for a crop plant by flooded paddy field treatment; parameters: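 0-5 phytotoxicity grade; 5 = over 90%; 4 = 70-90%; 3 = 50-70%; 2 = 30-50%; 1 = 10-30%; 0 = under 10%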; conditions: rice transplanted at second leaf stage, dose 25 gai/10a, 21st day after treatment, index per Table 44
# How it was run: (§3)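 Flooded paddy pots, 3 cm water; weeds sown from seed, rice transplanted at 2nd-leaf stage. Day after: wettable powder diluted in water, applied dropwise to water surface, 25 g a.i./10 a. Greenhouse; herbicidal effect rated at day 21.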
# barnyard grass (Eo) [5] = assay: as above; parameters: scale not given here; conditions: barnyard grass, dose 25 gai/10a, 21st day after treatment, index per Table 44
# How it was run: as §3
# monochoria (Mo) [6] = assay: as above; parameters: scale not given here; conditions: monochoria, dose 25 gai/10a, 21st day after treatment, index per Table 44
# How it was run: as §3
smiles,measurement,setting,value
CN(C(=O)Cc1ccc(F)cc1)C(c1cncnc1C(F)(F)Cl)C1CC1 (racemic) [Compound 1-92],"herbicidal effects, Ec (barnyard grass)",barnyard grass (Ec) [1],5
same,"herbicidal effects, Se (green foxtail)",green foxtail (Se),5
same,"Ec (herbicidal effects, index)",barnyard grass (Ec) [2],5
Cc1ccc(CC(=S)N(C)C(c2cncnc2C(F)(F)F)C(C)C)cc1 (racemic) [Compound 1-145],"herbicidal effects, Ec (barnyard grass)",barnyard grass (Ec) [1],5
same,"herbicidal effects, Se (green foxtail)",green foxtail (Se),5
same,"herbicidal effects, Mo (monochoria)",monochoria (Mo) [3],5
same,"herbicidal effects, Eo (barnyard grass)",barnyard grass (Eo) [4],5
same,Or (herbicidal effect index on crop),rice (Or),1
same,Eo (herbicidal effect index),barnyard grass (Eo) [5],5
same,Mo (herbicidal effect index),monochoria (Mo) [6],5
CC(C)C(c1cncnc1C(F)(F)F)N(C)C(=O)Cc1ccc2c(c1)OCO2 (racemic) [Compound 1-146],"herbicidal effects, Ec (barnyard grass)",barnyard grass (Ec) [1],4
same,"herbicidal effects, Se (green foxtail)",green foxtail (Se),4
same,"herbicidal effects, Mo (monochoria)",monochoria (Mo) [3],5
same,"herbicidal effects, Eo (barnyard grass)",barnyard grass (Eo) [4],5
same,Or (herbicidal effect index on crop),rice (Or),1
same,Eo (herbicidal effect index),barnyard grass (Eo) [5],5
same,Mo (herbicidal effect index),monochoria (Mo) [6],5
CC(C)C(c1cncnc1C(F)(F)F)N(C)C(=O)Cc1ccc(F)cc1F (racemic) [Compound 1-147],"herbicidal effects, Ec (barnyard grass)",barnyard grass (Ec) [1],5
same,"herbicidal effects, Se (green foxtail)",green foxtail (Se),5
same,"herbicidal effects, Mo (monochoria)",monochoria (Mo) [3],5
same,"herbicidal effects, Eo (barnyard grass)",barnyard grass (Eo) [4],5
same,Or (herbicidal effect index on crop),rice (Or),1
same,Eo (herbicidal effect index),barnyard grass (Eo) [5],5
same,Mo (herbicidal effect index),monochoria (Mo) [6],5
CSc1ncncc1C(C(C)C)N(C)C(=O)Cc1ccccc1 (racemic) [Compound 1-150],"herbicidal effects, Ec (barnyard grass)",barnyard grass (Ec) [1],5
same,"herbicidal effects, Se (green foxtail)",green foxtail (Se),5
same,"herbicidal effects, Mo (monochoria)",monochoria (Mo) [3],5
same,"herbicidal effects, Eo (barnyard grass)",barnyard grass (Eo) [4],5
same,Or (herbicidal effect index on crop),rice (Or),1
same,Eo (herbicidal effect index),barnyard grass (Eo) [5],5
same,Mo (herbicidal effect index),monochoria (Mo) [6],5
Cc1ncncc1C(N(C)C(=O)Cc1ccc(Cl)cc1)C(C)(C)C (racemic) [Compound 1-161],"herbicidal effects, Ec (barnyard grass)",barnyard grass (Ec) [1],5
same,"herbicidal effects, Se (green foxtail)",green foxtail (Se),5
same,"herbicidal effects, Mo (monochoria)",monochoria (Mo) [3],5
same,"herbicidal effects, Eo (barnyard grass)",barnyard grass (Eo) [4],5
same,Or (herbicidal effect index on crop),rice (Or),0
same,Eo (herbicidal effect index),barnyard grass (Eo) [5],5
same,Mo (herbicidal effect index),monochoria (Mo) [6],5
Cc1ccc(CC(=O)N(C)C(c2cncnc2C)C(C)(C)C)cc1 (racemic) [Compound 1-162],"herbicidal effects, Ec (barnyard grass)",barnyard grass (Ec) [1],5
same,"herbicidal effects, Se (green foxtail)",green foxtail (Se),4
same,"herbicidal effects, Mo (monochoria)",monochoria (Mo) [3],5
same,"herbicidal effects, Eo (barnyard grass)",barnyard grass (Eo) [4],5
same,Or (herbicidal effect index on crop),rice (Or),0
same,Eo (herbicidal effect index),barnyard grass (Eo) [5],5
same,Mo (herbicidal effect index),monochoria (Mo) [6],5
Cc1ccc(CC(=O)N(C)C(c2cncnc2C(F)F)C(C)C)cc1 (racemic) [Compound 1-166],"herbicidal effects, Ec (barnyard grass)",barnyard grass (Ec) [1],5
same,"herbicidal effects, Se (green foxtail)",green foxtail (Se),5
same,"herbicidal effects, Mo (monochoria)",monochoria (Mo) [3],5
same,"herbicidal effects, Eo (barnyard grass)",barnyard grass (Eo) [4],5
same,Or (herbicidal effect index on crop),rice (Or),1
same,Eo (herbicidal effect index),barnyard grass (Eo) [5],5
same,Mo (herbicidal effect index),monochoria (Mo) [6],5
CC(C)C(c1cncnc1C(F)(F)F)N(C)C(=O)Cc1cc(F)cc(F)c1 (racemic) [Compound 1-167],"herbicidal effects, Ec (barnyard grass)",barnyard grass (Ec) [1],5
same,"herbicidal effects, Se (green foxtail)",green foxtail (Se),5
same,"herbicidal effects, Mo (monochoria)",monochoria (Mo) [3],5
same,"herbicidal effects, Eo (barnyard grass)",barnyard grass (Eo) [4],5
same,Or (herbicidal effect index on crop),rice (Or),1
same,Eo (herbicidal effect index),barnyard grass (Eo) [5],5
same,Mo (herbicidal effect index),monochoria (Mo) [6],5
CCN(C(=O)Cc1ccccc1)C(c1cncnc1C(F)F)C(C)C (racemic) [Compound 1-168],"herbicidal effects, Ec (barnyard grass)",barnyard grass (Ec) [1],5
same,"herbicidal effects, Se (green foxtail)",green foxtail (Se),5
same,"herbicidal effects, Mo (monochoria)",monochoria (Mo) [3],5
same,"herbicidal effects, Eo (barnyard grass)",barnyard grass (Eo) [4],5
same,Or (herbicidal effect index on crop),rice (Or),1
same,Eo (herbicidal effect index),barnyard grass (Eo) [5],5
same,Mo (herbicidal effect index),monochoria (Mo) [6],5
CCN(C(=O)Cc1ccc(F)cc1)C(c1cncnc1C(F)F)C(C)C (racemic) [Compound 1-169],"herbicidal effects, Ec (barnyard grass)",barnyard grass (Ec) [1],5
same,"herbicidal effects, Se (green foxtail)",green foxtail (Se),5
same,"herbicidal effects, Mo (monochoria)",monochoria (Mo) [3],5
same,"herbicidal effects, Eo (barnyard grass)",barnyard grass (Eo) [4],5
same,Or (herbicidal effect index on crop),rice (Or),1
same,Eo (herbicidal effect index),barnyard grass (Eo) [5],5
same,Mo (herbicidal effect index),monochoria (Mo) [6],5
CCN(C(=O)Cc1ccc(Cl)cc1)C(c1cncnc1C(F)F)C(C)C (racemic) [Compound 1-170],"herbicidal effects, Ec (barnyard grass)",barnyard grass (Ec) [1],5
same,"herbicidal effects, Se (green foxtail)",green foxtail (Se),5
same,"herbicidal effects, Mo (monochoria)",monochoria (Mo) [3],5
same,"herbicidal effects, Eo (barnyard grass)",barnyard grass (Eo) [4],5
same,Or (herbicidal effect index on crop),rice (Or),1
same,Eo (herbicidal effect index),barnyard grass (Eo) [5],5
same,Mo (herbicidal effect index),monochoria (Mo) [6],5
CCN(C(=O)Cc1ccc(C)cc1)C(c1cncnc1C(F)F)C(C)C (racemic) [Compound 1-171],"herbicidal effects, Ec (barnyard grass)",barnyard grass (Ec) [1],5
same,"herbicidal effects, Se (green foxtail)",green foxtail (Se),4
same,"herbicidal effects, Mo (monochoria)",monochoria (Mo) [3],5
same,"herbicidal effects, Eo (barnyard grass)",barnyard grass (Eo) [4],5
same,Or (herbicidal effect index on crop),rice (Or),1
same,Eo (herbicidal effect index),barnyard grass (Eo) [5],5
same,Mo (herbicidal effect index),monochoria (Mo) [6],5
